Test results from ChEMBL document CHEMBL5291721, “A preclinical secondary pharmacology resource illuminates target-adverse drug reaction associations of marketed drugs” (Nat Commun, 2023).

How the values were obtained:
[1] = biological target: T1, Alpha-2A adrenergic receptor (Homo sapiens, UniProt P08913)
T1 sequence (P08913 whole entry): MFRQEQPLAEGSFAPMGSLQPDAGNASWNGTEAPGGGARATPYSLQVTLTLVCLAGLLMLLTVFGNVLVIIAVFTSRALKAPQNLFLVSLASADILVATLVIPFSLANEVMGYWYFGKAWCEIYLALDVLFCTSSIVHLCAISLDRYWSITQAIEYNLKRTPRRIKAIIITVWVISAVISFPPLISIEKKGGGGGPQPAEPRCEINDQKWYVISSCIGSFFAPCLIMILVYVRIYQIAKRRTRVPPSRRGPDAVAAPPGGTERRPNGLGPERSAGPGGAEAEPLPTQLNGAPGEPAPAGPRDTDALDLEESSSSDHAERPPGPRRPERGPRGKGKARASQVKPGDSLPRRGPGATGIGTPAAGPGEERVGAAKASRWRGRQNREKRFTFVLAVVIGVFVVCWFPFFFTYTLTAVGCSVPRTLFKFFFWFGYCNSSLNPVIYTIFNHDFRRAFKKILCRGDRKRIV

[2] = biological target: T2, Muscarinic acetylcholine receptor M2 (Homo sapiens, UniProt P08172)
T2 sequence (P08172 whole entry): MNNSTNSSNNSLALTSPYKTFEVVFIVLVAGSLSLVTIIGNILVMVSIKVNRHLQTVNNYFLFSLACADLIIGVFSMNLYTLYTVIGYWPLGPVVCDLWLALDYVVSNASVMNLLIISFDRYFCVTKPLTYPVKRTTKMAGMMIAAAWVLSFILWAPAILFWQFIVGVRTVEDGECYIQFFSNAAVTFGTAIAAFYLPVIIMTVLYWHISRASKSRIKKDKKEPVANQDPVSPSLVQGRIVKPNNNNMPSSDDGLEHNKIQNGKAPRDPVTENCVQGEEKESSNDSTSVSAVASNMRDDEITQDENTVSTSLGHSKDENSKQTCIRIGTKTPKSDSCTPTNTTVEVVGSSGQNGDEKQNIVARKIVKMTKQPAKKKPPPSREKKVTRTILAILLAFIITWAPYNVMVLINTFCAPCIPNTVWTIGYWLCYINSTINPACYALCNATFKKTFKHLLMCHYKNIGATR

[3] = biological target: Histamine H3 receptor (Homo sapiens, UniProt Q9Y5N1)
Sequence of Histamine H3 receptor (Q9Y5N1 whole entry): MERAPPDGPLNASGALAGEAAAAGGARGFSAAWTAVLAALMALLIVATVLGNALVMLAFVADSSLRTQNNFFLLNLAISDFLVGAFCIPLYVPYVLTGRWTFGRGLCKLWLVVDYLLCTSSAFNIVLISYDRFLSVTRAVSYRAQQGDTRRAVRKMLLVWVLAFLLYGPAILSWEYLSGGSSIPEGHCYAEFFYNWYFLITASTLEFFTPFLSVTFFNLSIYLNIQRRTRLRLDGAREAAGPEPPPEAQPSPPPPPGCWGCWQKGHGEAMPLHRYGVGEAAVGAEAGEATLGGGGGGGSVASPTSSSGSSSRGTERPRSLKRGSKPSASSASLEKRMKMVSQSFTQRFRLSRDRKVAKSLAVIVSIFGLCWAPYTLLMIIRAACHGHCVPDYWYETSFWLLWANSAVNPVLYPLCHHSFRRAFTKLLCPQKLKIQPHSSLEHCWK

[4] = biological target: T3, 5-hydroxytryptamine receptor 1A (Homo sapiens, UniProt P08908)
T3 sequence (P08908 whole entry): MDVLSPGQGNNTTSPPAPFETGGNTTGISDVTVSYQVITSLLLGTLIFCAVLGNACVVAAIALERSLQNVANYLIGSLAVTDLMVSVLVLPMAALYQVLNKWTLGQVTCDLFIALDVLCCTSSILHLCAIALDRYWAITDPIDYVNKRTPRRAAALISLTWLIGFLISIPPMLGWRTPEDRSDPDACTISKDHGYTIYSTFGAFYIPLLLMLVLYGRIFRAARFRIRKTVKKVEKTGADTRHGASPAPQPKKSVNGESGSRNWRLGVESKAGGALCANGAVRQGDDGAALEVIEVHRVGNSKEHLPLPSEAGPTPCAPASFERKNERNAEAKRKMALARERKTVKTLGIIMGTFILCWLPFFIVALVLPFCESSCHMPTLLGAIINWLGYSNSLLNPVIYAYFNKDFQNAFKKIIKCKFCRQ

[5] = biological target: 5-hydroxytryptamine receptor 2B (Homo sapiens, UniProt P41595); format: functional, cell-based
Sequence of 5-hydroxytryptamine receptor 2B (P41595 whole entry): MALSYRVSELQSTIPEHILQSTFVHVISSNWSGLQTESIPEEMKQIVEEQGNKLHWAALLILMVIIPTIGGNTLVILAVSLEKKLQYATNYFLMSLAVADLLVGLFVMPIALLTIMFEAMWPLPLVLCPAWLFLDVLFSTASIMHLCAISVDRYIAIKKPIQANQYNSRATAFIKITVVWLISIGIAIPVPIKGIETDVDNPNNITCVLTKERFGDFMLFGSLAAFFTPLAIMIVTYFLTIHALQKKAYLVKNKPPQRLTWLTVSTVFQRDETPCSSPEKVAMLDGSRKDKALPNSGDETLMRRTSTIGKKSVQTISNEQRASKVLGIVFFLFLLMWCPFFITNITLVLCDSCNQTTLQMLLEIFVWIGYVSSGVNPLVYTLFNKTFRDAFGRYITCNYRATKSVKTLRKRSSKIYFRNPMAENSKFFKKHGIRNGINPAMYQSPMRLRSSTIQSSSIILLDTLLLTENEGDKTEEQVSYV

[6] = biological target: Vascular endothelial growth factor receptor 2 (Homo sapiens, UniProt P35968); format: functional
Sequence of Vascular endothelial growth factor receptor 2 (P35968 whole entry): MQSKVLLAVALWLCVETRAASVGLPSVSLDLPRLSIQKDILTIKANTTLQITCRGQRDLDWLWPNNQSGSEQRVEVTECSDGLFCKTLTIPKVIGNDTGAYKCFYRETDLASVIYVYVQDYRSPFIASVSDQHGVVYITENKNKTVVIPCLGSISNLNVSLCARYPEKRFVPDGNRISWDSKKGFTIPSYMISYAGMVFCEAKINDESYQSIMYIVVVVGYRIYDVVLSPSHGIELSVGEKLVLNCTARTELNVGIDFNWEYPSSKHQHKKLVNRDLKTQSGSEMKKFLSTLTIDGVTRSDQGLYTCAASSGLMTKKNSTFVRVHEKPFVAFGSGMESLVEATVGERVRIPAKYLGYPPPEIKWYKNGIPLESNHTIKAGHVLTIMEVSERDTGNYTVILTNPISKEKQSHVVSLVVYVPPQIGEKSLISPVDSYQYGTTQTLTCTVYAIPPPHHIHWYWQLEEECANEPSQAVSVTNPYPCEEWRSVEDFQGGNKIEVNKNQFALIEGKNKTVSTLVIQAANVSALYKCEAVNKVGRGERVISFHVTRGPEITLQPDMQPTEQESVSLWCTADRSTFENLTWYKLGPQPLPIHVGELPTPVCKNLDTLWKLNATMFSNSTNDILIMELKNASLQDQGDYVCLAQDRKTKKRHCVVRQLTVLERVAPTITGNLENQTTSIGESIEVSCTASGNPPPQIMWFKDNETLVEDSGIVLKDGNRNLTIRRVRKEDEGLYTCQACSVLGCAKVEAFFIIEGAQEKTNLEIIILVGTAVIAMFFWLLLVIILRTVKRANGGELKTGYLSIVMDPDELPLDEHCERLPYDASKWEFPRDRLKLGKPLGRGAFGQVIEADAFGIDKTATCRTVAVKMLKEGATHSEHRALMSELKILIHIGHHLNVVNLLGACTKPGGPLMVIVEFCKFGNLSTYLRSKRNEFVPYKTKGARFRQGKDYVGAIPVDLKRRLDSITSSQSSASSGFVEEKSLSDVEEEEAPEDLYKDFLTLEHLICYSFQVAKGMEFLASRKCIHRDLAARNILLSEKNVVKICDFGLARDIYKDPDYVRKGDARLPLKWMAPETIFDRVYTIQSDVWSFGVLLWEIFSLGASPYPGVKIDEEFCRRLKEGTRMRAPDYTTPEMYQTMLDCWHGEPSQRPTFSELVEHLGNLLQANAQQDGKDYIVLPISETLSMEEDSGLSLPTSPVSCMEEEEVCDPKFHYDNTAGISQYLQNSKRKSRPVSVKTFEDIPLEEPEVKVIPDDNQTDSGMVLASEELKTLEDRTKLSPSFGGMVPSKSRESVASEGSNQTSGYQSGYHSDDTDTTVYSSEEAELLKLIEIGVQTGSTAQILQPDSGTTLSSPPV

[7] = biological target: Sodium-dependent noradrenaline transporter (Homo sapiens, UniProt P23975)
Sequence of Sodium-dependent noradrenaline transporter (P23975 whole entry): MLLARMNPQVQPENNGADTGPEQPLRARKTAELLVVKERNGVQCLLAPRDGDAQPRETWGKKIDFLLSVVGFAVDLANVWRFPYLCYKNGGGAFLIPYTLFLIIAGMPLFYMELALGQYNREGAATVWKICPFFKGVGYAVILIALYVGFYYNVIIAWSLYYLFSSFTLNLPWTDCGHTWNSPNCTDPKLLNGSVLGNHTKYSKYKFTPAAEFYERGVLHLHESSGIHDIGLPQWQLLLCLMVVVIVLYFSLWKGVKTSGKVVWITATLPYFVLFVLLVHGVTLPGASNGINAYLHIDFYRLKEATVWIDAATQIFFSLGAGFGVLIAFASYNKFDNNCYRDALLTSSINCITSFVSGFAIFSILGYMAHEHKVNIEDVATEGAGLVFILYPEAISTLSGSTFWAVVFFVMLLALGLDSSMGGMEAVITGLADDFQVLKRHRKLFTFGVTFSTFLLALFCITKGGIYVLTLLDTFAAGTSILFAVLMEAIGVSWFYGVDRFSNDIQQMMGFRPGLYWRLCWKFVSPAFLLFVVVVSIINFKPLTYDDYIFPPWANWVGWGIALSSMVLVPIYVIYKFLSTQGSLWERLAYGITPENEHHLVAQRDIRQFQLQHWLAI

[8] = biological target: Sodium-dependent serotonin transporter (Homo sapiens, UniProt P31645)
Sequence of Sodium-dependent serotonin transporter (P31645 whole entry): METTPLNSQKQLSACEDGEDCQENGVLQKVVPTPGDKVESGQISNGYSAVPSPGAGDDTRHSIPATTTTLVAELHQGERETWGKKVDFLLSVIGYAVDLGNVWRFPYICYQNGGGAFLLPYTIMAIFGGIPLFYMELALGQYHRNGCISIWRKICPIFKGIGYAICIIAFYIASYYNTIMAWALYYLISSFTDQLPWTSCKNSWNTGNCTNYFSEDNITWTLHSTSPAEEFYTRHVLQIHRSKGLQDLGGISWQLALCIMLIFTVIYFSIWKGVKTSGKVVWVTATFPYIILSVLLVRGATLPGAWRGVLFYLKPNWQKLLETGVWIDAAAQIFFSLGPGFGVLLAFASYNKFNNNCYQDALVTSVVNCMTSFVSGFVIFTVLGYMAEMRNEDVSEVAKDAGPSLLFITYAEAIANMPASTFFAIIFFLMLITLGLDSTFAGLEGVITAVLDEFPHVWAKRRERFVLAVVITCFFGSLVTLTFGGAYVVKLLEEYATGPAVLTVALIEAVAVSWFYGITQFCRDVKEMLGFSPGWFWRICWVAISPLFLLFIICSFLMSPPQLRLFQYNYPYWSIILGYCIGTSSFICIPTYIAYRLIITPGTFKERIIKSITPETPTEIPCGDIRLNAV

[9] = biological target: T4, Thromboxane A2 receptor (Homo sapiens, UniProt P21731); format: functional, cell-based
T4 sequence (P21731 whole entry): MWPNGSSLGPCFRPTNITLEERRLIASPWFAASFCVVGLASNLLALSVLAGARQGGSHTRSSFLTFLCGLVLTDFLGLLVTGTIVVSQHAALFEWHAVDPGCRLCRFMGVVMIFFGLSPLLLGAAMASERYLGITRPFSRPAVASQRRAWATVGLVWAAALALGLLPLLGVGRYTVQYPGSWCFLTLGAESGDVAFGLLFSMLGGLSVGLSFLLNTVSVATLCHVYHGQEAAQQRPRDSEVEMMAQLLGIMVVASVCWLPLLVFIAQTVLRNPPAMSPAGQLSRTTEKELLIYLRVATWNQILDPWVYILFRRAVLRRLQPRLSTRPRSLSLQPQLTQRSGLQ
Note: assay procedure not described here.

| Structure (SMILES) | AC50 [1] | AC50 [2] | AC50 [3] | AC50 [4] | AC50 [5] | AC50 [6] | AC50 [7] | AC50 [8] | AC50 [9] |
| --- | --- | --- | --- | --- | --- | --- | --- | --- | --- |
| CC[C@@H]1C[C@]1(NC(=O)[C@@H]1C[C@@H]2CN1C(=O)[C@H](C(C)(C)C)NC(=O)OCC(C)(C)CCCCc1cccc3c1CN(C3)C(=O)O2)C(=O)NS(=O)(=O)C1CC1 | > 30 µM | > 30 µM | > 30 µM | > 30 µM | > 30 µM | 16.3 µM | > 30 µM | > 30 µM | > 3 µM |
| CC(=O)NCCCCCC(=O)O [ACEXAMIC ACID] | > 30 µM | > 30 µM | > 30 µM | > 30 µM | > 30 µM | > 30 µM | > 30 µM | > 30 µM | > 30 µM |
| C=C(C)CNc1ccc(C(C)C(=O)O)cc1 (configuration not stated) [ALMINOPROFEN] | > 30 µM | > 30 µM | > 30 µM | > 30 µM | > 30 µM | > 30 µM | > 30 µM | > 30 µM | > 30 µM |
| C[C@H]1CN(C[C@H](Cc2ccccc2)C(=O)NCC(=O)O)CC[C@@]1(C)c1cccc(O)c1 [ALVIMOPAN] | > 30 µM | > 30 µM | > 30 µM | > 30 µM | > 30 µM | > 30 µM | > 30 µM | > 30 µM | > 30 µM |
| C[C@H]1O[C@@H](O[C@H]2CC[C@@]3(C)[C@H](CC[C@@H]4[C@@H]3C[C@@H](O)[C@]3(C)[C@@H](C5=CC(=O)OC5)CC[C@]43O)C2)C[C@H](O)[C@@H]1O[C@H]1C[C@H](O)[C@H](O[C@H]2C[C@H](O)[C@H](O[C@@H]3O[C@H](CO)[C@@H](O)[C@H](O)[C@H]3O)[C@@H](C)O2)[C@@H](C)O1 [DESLANOSIDE] | > 30 µM | > 30 µM | > 30 µM | > 30 µM | > 30 µM | > 30 µM | > 30 µM | > 30 µM | > 30 µM |
| C[N+](C)(CCCCCC[N+](C)(C)C1c2ccccc2-c2ccccc21)C1c2ccccc2-c2ccccc21 [HEXAFLUORENIUM] | 2.19 µM | 0.514 µM | 2.72 µM | 0.868 µM | > 30 µM | > 30 µM | 1.44 µM | 3.02 µM | > 30 µM |
| CCCCC(CC)CN1CN(CC(CC)CCCC)CC(C)(N)C1 (configuration not stated) [HEXETIDINE] | 14.4 µM | 3.18 µM | > 10 µM | 3.44 µM | > 30 µM | > 30 µM | 7.93 µM | 6.51 µM | > 30 µM |
| Cc1cc(=O)oc2cc(O)ccc12 [HYMECROMONE] | > 30 µM | > 30 µM | > 30 µM | > 30 µM | > 30 µM | 25.4 µM | > 30 µM | > 30 µM | > 30 µM |
| COc1c2occc2c(OC)c2c(=O)cc(C)oc12 [KHELLIN] | > 30 µM | > 30 µM | > 30 µM | > 30 µM | > 30 µM | > 30 µM | > 30 µM | > 30 µM | > 30 µM |
| CC(C)[C@@H]1CC[C@@H](C)C[C@H]1O [LEVOMENTHOL] | > 30 µM | > 30 µM | > 30 µM | > 30 µM | > 30 µM | > 30 µM | > 30 µM | > 30 µM | > 30 µM |
| COC(=O)[C@@H](N)Cc1ccc(O)c(O)c1 [MELEVODOPA] | 20.3 µM | > 30 µM | > 30 µM | > 30 µM | > 30 µM | > 30 µM | > 30 µM | > 30 µM | > 30 µM |
| C[N+]1(C)CCCC(OC(=O)C(O)(c2ccccc2)c2ccccc2)C1 (configuration not stated) [MEPENZOLATE] | > 30 µM |  | > 30 µM | > 30 µM | > 30 µM | > 30 µM | > 30 µM | 20.4 µM | > 30 µM |
| C=N[C@@H](C(=O)N[C@@H]1C(=O)N2[C@@H]1SC(C)(C)[C@@H]2C(=O)O)c1ccccc1 [METAMPICILLIN] | > 30 µM | > 30 µM | > 30 µM | > 30 µM | > 30 µM | > 30 µM | > 30 µM | > 30 µM | > 30 µM |
| O=C(NNCS(=O)(=O)O)c1ccncc1 [METHANIAZIDE] | > 30 µM | > 30 µM | > 30 µM | > 30 µM | > 30 µM | > 30 µM | > 30 µM | > 30 µM | > 30 µM |
| Cc1cc(=O)[nH]c(=S)[nH]1 [METHYLTHIOURACIL] | > 30 µM | > 30 µM | > 30 µM | > 30 µM | > 30 µM | > 30 µM | > 30 µM | > 30 µM | > 30 µM |
| CN(C)c1ccc(O)c2c1C[C@H]1C[C@H]3[C@H](N(C)C)C(O)=C(C(N)=O)C(=O)[C@@]3(O)C(O)=C1C2=O [MINOCYCLINE] | > 30 µM | > 10 µM | > 30 µM | > 30 µM | > 30 µM | > 30 µM | > 30 µM | > 30 µM | > 30 µM |
| CCNC(=O)/C=C(C)/C=C/C=C(C)/C=C/c1c(C)cc(OC)c(C)c1C [MOTRETINIDE] | > 30 µM | > 30 µM | > 30 µM | > 30 µM | > 30 µM | > 30 µM | 24.1 µM | 28.3 µM | > 30 µM |
| C=CC(=O)Nc1cccc(Oc2nc(Nc3ccc(N4CCN(C)CC4)cc3)nc3ccsc23)c1 [OLMUTINIB] | 0.881 µM | 1.64 µM | 0.94 µM | 2.44 µM | > 30 µM | 2.06 µM | 12.3 µM | > 30 µM | 4.35 µM |
| CCCCC1C(=O)N(c2ccccc2)N(c2ccc(O)cc2)C1=O (configuration not stated) [OXYPHENBUTAZONE ANHYDROUS] | > 30 µM | > 30 µM | > 30 µM | > 30 µM | > 30 µM | > 30 µM | > 30 µM | > 30 µM | > 30 µM |
| O=C(O)CN(CCN(CC(=O)O)CC(=O)O)CCN(CC(=O)O)CC(=O)O [PENTETIC ACID] | 1.32 µM | 3.91 µM | 19.8 µM | > 30 µM | > 30 µM | > 30 µM | 10.9 µM | 0.0429 µM | > 30 µM |
| Nc1cccc2c1C(=O)N(C1CCC(=O)NC1=O)C2=O (configuration not stated) [POMALIDOMIDE] | > 30 µM | > 30 µM | > 30 µM | > 30 µM | > 30 µM | > 30 µM | > 30 µM | > 30 µM | > 30 µM |
| C[Se]CC[C@H](N)C(=O)O [SELENOMETHIONINE] | > 30 µM | > 30 µM | > 30 µM | > 30 µM | > 30 µM | > 30 µM | > 30 µM | > 30 µM | > 30 µM |
